# Data: patent publication US20090252674A1, “Tripodal Ligands with the Coordinating Motifs K2 -BH2 or K3 -BH3 Relevant for Biomedical Applications of Organometallic Complexes” (Mallinckrodt Inc., priority 2005, published 2009)
# Experiment: HPLC analysis of the 6a preparation at different intervals of time (stability under physiologic conditions)
# Assay type: physicochemical
# Details: PBS, pH 7.4
# Protocol: In a nitrogen-purged glass vial, 100 μL of a 2.5×10^−2 M aqueous solution of ligand 1 were added to 400 μL (7.5 mCi) of the organometallic precursor fac−[^99mTc(OH2)3(CO)3]^+, and the mixture was incubated at room temperature for 30 min. After this time, complex 6a has been obtained in 90% yield, as checked by gradient HPLC analysis (from 100% aqueous 0.1% CF3COOH solution to 100% CH3CN) using a Nucleosil column (10:m, 250 mm×4 mm). The chemical identity of 6a was confirmed by comparing its HPLC chromatogram with the HPLC profile of the analogue Re complex (6) (Retention time: Re, 25.78 min; ^99mTc, 26.28 min). HPLC analysis of the preparation of 6a, at different intervals of time, has shown that 6a is stable under physiologic conditions (PBS, pH 7.4), at least for a period of 24 h.
substance,measurement,value
[^99mTc (κ^3-H3B(Tim^Me))(CO)3] [complex 6a],"stable under physiologic conditions, period",≥ 24 h
